Experimental data: patent US11434492B2, “Ribosome-mediated incorporation of peptides and peptidomimetics” (Arizona Board of Regents on behalf of Arizona State …, priority 2015, dated 2022)
“And” between values parts separate entries of the source, which are not always exact repeats. Identical values can stand only once. Peptide text beside a SMILES is read from it.

How the values were obtained:
[1] = tested on: modified ribosomes from clone 010326R6; test: In vitro translation: suppression of TAG codon at position 66 of GFP (pETGFP66), S-30 from clone 010326R6; type: biochemical, Escherichia coli
Method: (§1) In vitro Protein Translation. Protein translation reactions were carried out in 12-2000 μL of incubation mixture containing 0.4 μL/μL of S-30 system, 100 ng/μL of plasmid, 35 mM Tris acetate, pH 7.4, 190 mM potassium glutamate, 30 mM ammonium acetate, 2 mM DTT, 0.2 mg/mL total E. coli tRNA, 3.5% PEG 6000, 20 μg/mL folinic acid, 20 mM ATP and GTP, 5 mM CTP and UTP, 100 μM amino acids mixture, 0.5 μCi/μL of ^35S-methionine for analytical purposes only and 1 μg/mL rifampicin. In the case of plasmids having a gene with a TAG codon, a suppressor tRNA was added to a concentration of 0.8 μg/μL. Reactions were carried out at 37° C. for 1 h (for 12 μL reaction mixtures) to 1.5 h (for 2000 μL reaction mixtures) and terminated by chilling on ice. Aliquots from in vitro translation mixtures were analyzed by SDS-PAGE followed by quantification of the radioactive bands by phosphorimager analysis.
The free amino acids both have λex in the range 296-302 nm but the λem of 7 is somewhat red-shifted compared to that of 6. […] As a negative control, wild-type GFP synthesis from the modified mRNA in the presence of nonacylated tRNACUA was measured for each experiment. The amounts of GFP produced were quantified with a phosphoimager, which monitored the incorporation of ^35S-methionine into proteins. […]

[2] = tested on: modified ribosomes (23S rRNA modified); test: In vitro translation: suppression of UAG codon at position 10 of DHFR mRNA, S-30 systems having modified ribosomes; type: biochemical, E. coli; details: for Suppression efficiency in different S-30 systems, having modified ribosomes (%): position 10 of E. coli DHFR, relative to wild-type DHFR = 100
Method: Preparation of Aminoacyl-tRNACUAs. The activation of suppressor tRNACUAs was carried out as described previously.^4,5 Briefly, 100-μL reaction mixture of 100 mM Na Hepes, pH 7.5, contained 1.0 mM ATP, 15 mM MgCl2, 100 μg of suppressor tRNACUA-COH, 0.5 A260 unit of N-pentenoyl-protected aminoacyl-pdCpA, 15% DMSO, and 100 units of T4 RNA ligase. The reaction mixture was incubated at 37° C. for 1.5 h and quenched by the addition of 0.1 vol of 3 M NaOAc, pH 5.2. The N-protected aminoacylated tRNA was precipitated with 3 vol of cold ethanol. The efficiency of ligation was estimated by 8% polyarylamide-7 M urea gel electrophoresis (pH 5.0).
The N-pentenoyl-protected aminoacyl-tRNACUAs were deprotected by treatment with 5 mM aqueous […] at 25° C. for 15 min. The solution was centrifuged, and the supernatant was adjusted to 0.3 M NaOAc and treated with 3 vol of cold ethanol to precipitate the aminoacylated tRNA. The tRNA pellet was collected by centrifugation, washed with 70% aq EtOH, air dried and dissolved in 20 μL of RNase free water.
Preparation of S-30 Extracts from Cells Having Modified Ribosomes. Aliquots (5-10 μL) from liquid stocks of E. coli BL-21 (DE-3) cells, harboring plasmids with a wild-type or modified rrnB gene, were placed on LB agar supplemented with 100 µg/mL of ampicillin and grown at 37° C. for 16-18 h. One colony was picked from each agar plate and transferred into 3 mL of LB medium supplemented with 100 μg/mL of ampicillin and 0.5 mM IPTG.
as §1
Incorporation of Dipeptides 2, 3 and 4 into DHFR Using the Modified Ribosomes. Initially, glycylphenylalanine (2) was chosen to screen the selected modified ribosomes for their ability to incorporate a dipeptide into DHFR. It was anticipated that minimal steric hindrance and more flexibility at the N-terminus of the dipeptide (a glycine residue) would enable optimal positioning of the amine for a nucleophilic attack in the PTC of the modified ribosomes. A modified DHFR construct, having a TAG codon in position 10 (pETDH10 plasmid) was used for the incorporation of glycylphenylalanine.
The suppression efficiencies were expressed relative to the wild-type DHFR synthesis. As a negative control, wild-type DHFR synthesis in the presence of nonacylated-tRNACUA was measured for each experiment. The amounts of DHFR produced were quantified with a phosphoimager, which monitored the incorporation of ^35S-methionine into DHFR. Using glycylphenylalanyl-tRNACUA, S-30 preparations having the modified ribosomes from clone groups 1, 2, 3 and 9 produced full length DHFR in ˜9% yields relative to the wild-type DHFR synthesis (Table 3). The modified ribosomes from clone groups 4-8 incorporated glycylphenylalanine (2) with low yields (˜2-4%). For dipeptide 2, best incorporation yields (up to 12%) were obtained by S-30 system having modified ribosomes from clone group 9 (2057AGUGAGA2063 and 2502AUCCGA2507).

wild-type ribosomes = test: In vitro translation: suppression of UAG codon at position 10 of DHFR mRNA, S-30 preparation having wild-type ribosomes; type: biochemical, E. coli; details: compared to wild-type DHFR synthesis
Method: as §1
Incorporation of Glycylphenylalanine (2) Using the Wild-Type Ribosome. The wild-type ribosomes synthesize polypeptide chains by incorporating one α-L-amino acid at a time via one monoacylated tRNA for each corresponding codon in the mRNA transcript.^6 Ribosome mediated sequential incorporation of two amino acids for one codon using bisacylated tRNAs has not been reported to date. […]

[3] = tested on: E. coli clones having mutations in two regions of the PTC in the 23S rRNA (modified ribosomes); test: Inhibition of cell growth by dipeptidyl-puromycin aminonucleoside 1 (selection of modified ribosomes); type: cell-based; details: 100 μg/mL 1
Method: Selection of Modified Ribosomes using Dipeptidyl-puromycin Aminonucleoside The selection experiments were carried on in a fashion similar to that described previously. (1) Briefly, library from 419 clones, having mutations in two regions of the PTC in the 23S rRNA (2057-2063 and 2496-2501 or 2502-2507) and organized in five 96 well plates (“master plates”), were used for selection of variants with modified ribosome. Three new plates were prepared for each “master plate” by transferring 2 μL of culture from each well of the master plate to the corresponding well of new plate and 98 μL assay solution was added to each well.
A solution without any puromycin derivative was used for control plate. All plates were incubated at 37° C. for 16-18 h in a thermostated shaker, and extent of cell growth was estimated by measuring the optical density at 600 nm. Inhibition of cell growth by 1 was estimated as described in previously. Clones with inhibition value more than 50% were taken for verification. […] Plates were incubated at 37° C. for 16-18 h in a thermostated shaker, extent of cell growth was estimated by measuring the optical density at 600 nm and IC50 data was calculated for each culture.
It was anticipated that the ribosomes of those clones which show sensitivity for 1 would be more likely to accommodate dipeptides or dipeptidomimetics in the PTC during peptide synthesis. […] Plasmids from these clones were isolated and sequenced.

## COc1ccc(-c2sc(CN)nc2C(=O)O)cc1 [dipeptidomimetic 7]
[1]
  suppression yield (full length GFP) relative to wild-type GFP synthesis: ~3.5%

## phenylalanylphenylalanyl [dipeptide 4]
[2]; clone group 1
  Suppression efficiency in different S-30 systems, having modified ribosomes (%): ~4%

## NCC(=O)N[C@@H](Cc1ccccc1)C(=O)O [dipeptide 2, glycylphenylalanine] (H-Gly-Phe-OH)
[2]; clone group 1
  Suppression efficiency in different S-30 systems, having modified ribosomes (%): ~9% and 8.4 ± 1.6%
[2]; clone group 2
  Suppression efficiency in different S-30 systems, having modified ribosomes (%): ~8% and 9.5 ± 0.5%
[2]; clone group 3
  Suppression efficiency in different S-30 systems, having modified ribosomes (%): 9% and 8.6 ± 1.5%
[2]; clone group 4
  Suppression efficiency in different S-30 systems, having modified ribosomes (%): 3.1 ± 0.2%
[2]; clone group 5
  Suppression efficiency in different S-30 systems, having modified ribosomes (%): 4.5 ± 0.7%
[2]; clone group 6
  Suppression efficiency in different S-30 systems, having modified ribosomes (%): 3.5%
[2]; clone group 7
  Suppression efficiency in different S-30 systems, having modified ribosomes (%): 2.1 ± 0.1%
[2]; clone group 8
  Suppression efficiency in different S-30 systems, having modified ribosomes (%): 2.2%
[2]; clone groups 1, 2, 3 and 9, position 10 of DHFR
  full length DHFR yield relative to the wild-type DHFR synthesis: ~9%
[2]; clone groups 4-8, position 10 of DHFR
  incorporation yield relative to the wild-type DHFR synthesis: 2-4%
wild-type ribosomes
  suppression efficiency: ~2%

## COc1ccc(C[C@H](N)C(=O)NCC(=O)N[C@H]2[C@@H](O)[C@H](n3cnc4c(N(C)C)ncnc43)O[C@@H]2CO)cc1 [puromycin derivative 1, 9-[3″-Deoxy-3″-(O-methyl-(S)-tyrosylglycyl)-β-D-ribofuranosyl]-6-(N,N″ dimethylamino)purine]
[3]; Wild-type ribosomes
  Inhibition by Puromycin Derivative 1 (%): <1%
[3]; clone 010309R3 (clone group 1)
  Inhibition by Puromycin Derivative 1 (%): 63.2%
[3]; clone 010310R1 (clone group 4)
  Inhibition by Puromycin Derivative 1 (%): 52.9%
[3]; clone 010310R4 (clone group 2)
  Inhibition by Puromycin Derivative 1 (%): 52.9%
[3]; clone 010322 (clone group 1)
  Inhibition by Puromycin Derivative 1 (%): 77%
[3]; clone 010326R1 (clone group 5)
  Inhibition by Puromycin Derivative 1 (%): 50.4%
[3]; clone 010326R5 (clone group 3)
  Inhibition by Puromycin Derivative 1 (%): 50.4%
[3]; clone 010326R6 (clone group 1)
  Inhibition by Puromycin Derivative 1 (%): 50.4%
[3]; clone 010328R2 (clone group 5)
  Inhibition by Puromycin Derivative 1 (%): 77%
[3]; clone 010328R4 (clone group 1)
  Inhibition by Puromycin Derivative 1 (%): 61%
[3]; clone 040322 (clone group 6)
  Inhibition by Puromycin Derivative 1 (%): 54%
[3]; clone 040329 (clone group 7)
  Inhibition by Puromycin Derivative 1 (%): 54%
[3]; clone 040338 (clone group 8)
  Inhibition by Puromycin Derivative 1 (%): 56%
[3]; clone 080337 (clone group 9)
  Inhibition by Puromycin Derivative 1 (%): 51%

## N[C@@H](Cc1ccccc1)C(=O)NCC(=O)O [dipeptide 3, phenylalanylglycine] (H-Phe-Gly-OH)
[2]; clone group 1
  Suppression efficiency in different S-30 systems, having modified ribosomes (%): ~14% and 13.9 ± 1.7%
[2]; clone group 2
  Suppression efficiency in different S-30 systems, having modified ribosomes (%): ~12% and 10.6 ± 0.5%
[2]; clone group 3
  Suppression efficiency in different S-30 systems, having modified ribosomes (%): 10% and 12.7 ± 2.5%
[2]; clone group 9
  Suppression efficiency in different S-30 systems, having modified ribosomes (%): ~13% and 13.3 ± 2.5%
